# Legend:
# C. glutamicum [1] = test: Microbioreactor cultivation at different initial ectoine levels (growth, on-line OD620); format: cell-based, Corynebacterium glutamicum ATCC 13032; settings: 30°C
# Method: Cultivation of C. glutamicum in microbioreactors. Screening of C. glutamicum strains was carried out in 48-well flower plates with transparent bottom for online biomass sensing using a microbioreactor (BioLector, Beckman Coulter GmbH, Baesweiler, Germany, Baesweiler, Germany) at 1,300 rpm, 85% humidity and different temperatures, as given below. Two subsequent pre-cultures were conducted in shake flasks as described above. For main cultures, each well of the microtiter plate was filled with 1 mL of minimal glucose medium and inoculated to an initial OD660 of 0.5. Over the course of the cultivation, biomass was measured online as light backscatter at 620 nm. All experiments were conducted as triplicate.
# In a first experiment the inventors examined if C. glutamicum, expressing ectD from P. stutzeri, can convert externally supplied ectoine into hydroxyectoine and, beneficially, excrete the latter (Fig. 1c). […]
# C. glutamicum [2] = test: Quantification of intracellular ectoines and free amino acids in cells grown with ectoine; format: cell-based, Corynebacterium glutamicum ATCC 13032; settings: 37°C, 10 h
# Method: Cultivation of C. glutamicum in shake flask. Cultures of C. glutamicum were incubated in baffled shake flasks (10% filling volume) in an orbital shaker at 230 rpm (Multitron, Infors AG, Bottmingen, Switzerland). For pre-culturing, cells were first grown overnight in complex BHI medium using a single colony from a 2-day pre-incubated BHI agar plate as inoculum. Subsequently, cells were harvested (8500 xg, 5 min, RT), washed once with minimal medium, and used to inoculate a second pre-culture in minimal glucose medium. The second pre-culture was then harvested during the exponential phase (8500 xg, 5 min, RT), washed once, and used to inoculate the main culture, again in minimal medium. The temperature was set to 30°C for precultures and 37°C for main cultures. All experiments were conducted as triplicate.
# Quantification of intracellular metabolites. To quantify intracellular amino acids and ectoines, 2 mL of mid-exponentially growing cells were sampled by fast filtration (cellulose nitrate filter, 0.2 µm, 47 mm, Sartorius, Göttingen, Germany) (Bolten CJ, Kiefer P, Letisse F, Portais J-C, Wittmann C: Sampling for Metabolome Analysis of Microorganisms. Analytical chemistry 2007, 79:3843-3849.), including twice washing of the cells on the filter with two volumes of 2.5% NaCl. The filters were then transferred into cups prefilled with a 220 µM α-amino butyric acid solution as internal standard for later quantification. […] The obtained supernatants were collected for analysis, and intracellular amino acids were quantified by HPLC (Hans MA, Heinzle E, Wittmann C: Quantification of intracellular amino acids in batch cultures of Saccharomyces cerevisiae. Appl Microbiol Biotechnol 2001, 56:776-779.).
# Quantification of ectoine and hydroxyectoine. Concentrations of ectoine and hydroxyectoine were analyzed by HPLC (Agilent Series 1290 Infinity, Agilent, Santa Clara, CA, USA). […] External standards were applied for quantification.
# Quantification of amino acids. Amino acid levels of cell lysates were quantified using HPLC (Agilent Series 1290 Infinity, Agilent, Santa Clara, CA, USA) with α-amino butyric acid as internal standard. For this, the analytes were derivatized with ortho-phthalaldehyde and 9-fluorenylmethyl chloroformate and were separated and quantified as described previously (Krömer J, Fritz M, Heinzle E, Wittmann C: In vivo quantification of intracellular amino acids and intermediates of the methionine pathway in Corynebacterium glutamicum. Analytical biochemistry 2005, 340:171-173.).
# For this purpose, the inventors extracted and quantified intracellular ectoine, hydroxyectoine, and free proteinogenic amino acids from the three strains during mid exponential growth, i. e. after 10 h (Fig. 3). […]
# [3] = hydroxyectoine producers, glucose + 5 mM ectoine
structure (smiles),measurement,setting,value
"CC1=NC(C(=O)O)CCN1 (stereo not drawn) [ectoine, 1,4,5,6-tetrahydro-2-methyl-4-pyrimidinecarboxylic acid]",cell fitness,"C. glutamicum [1]; increasing ectoine concentration, strains expressing MSM, VSA, HEL, SCO EctD variants",unchanged
same,cell fitness (specific growth rate),"C. glutamicum [1]; initial ectoine 5, 10, 15 mM, strains pClik and pCES PtufectD^PST",not affected
same,reduction of intracellular I-glutamic acid,"C. glutamicum [2]; MSM strain, glucose + 5 mM ectoine, versus control without ectoine",up to 47%
same,"intracellular pools of I-glutamic acid, I-glutamine, and I-proline","C. glutamicum [2]; ectoine added to non-producing control strain with empty pCES vector, 5 mM",strongly reduced
same,drop of intracellular level of I-glutamine,C. glutamicum [2]; [3],up to 61%
same,drop of intracellular level of I-proline,C. glutamicum [2]; [3],up to 50%

# From patent EP4379060A1, “HIGH-EFFICIENCY PRODUCTION OF HYDROXYECTOINE” (Universität des Saarlandes, priority 2022, dated 2024)
